Measured values from patent US7482479B2, “Production of cis-pellitorin and use as a flavouring” (Symrise GmbH & Co., KG, priority 2002, dated 2009).

Tests used:
[1] = Tasting of the substance in 11% sugar solution by a group of testers (sensory profile); format: in vivo; conditions: for sensory profile (tasting): approx. 5 ml swallowed, 6 to 8 testers; for flavour impression in sensory testing: concentration not given
Description: The substance to be tasted is dissolved in ethanol and the ethanolic solution then diluted with an 11% sugar solution (final concentration: c). Approx. 5 ml of the sugar solution at a time are swallowed for the tasting. If the threshold value of the substance is known, a value just above the threshold value is chosen for the tasting. A group of 6 to 8 testers tasted the solutions.

[2] = frequent use and overdosing; cited from earlier work
[3] = system: mouse; conditions: cited from earlier work
[4] = capsaicin as reference; cited from earlier work

SMILES	sensory profile (tasting) ([1]; c=10 ppm in 11% sugar solution)	flavour impression in sensory testing [1]	also measured
CCCCC/C=C/C=C/C(=O)NCC(C)C [trans-pellitorine, 2E,4E-decadienoic acid-N-isobutylamide]	saliva-stimulating, oily, fruity, slightly tingling, not pungent	primarily numbing	
COc1cc(CNC(=O)CCCC/C=C/C(C)C)ccc1O [capsaicin, N-(4-hydroxy-3-methoxybenzyl)-8-methyl-(6E)-nonenoic acid amide]			chronic toxicity [2]: chronic gastritis, kidney and liver damage; LD50 (mouse oral) [3]: 47 mg
COc1cc(CNC(=O)CCCCCCC(C)C)ccc1O [dihydrocapsaicin]			sensory profile (tasting) ([1]; c=100 ppb in 11% sugar solution): slightly delayed onset of effect in the pharynx, burning, aggressive, no heat development
O=C(/C=C/C=C/c1ccc2c(c1)OCO2)N1CCCCC1 [piperine, 1-piperoyl piperidine]			relative pungency in comparison to capsaicin [4]: approx. 1%
CCCCC/C=C\C=C\C(=O)NCC(C)C [cis-pellitorine, 2E,4Z-decadienoic acid-N-isobutylamide]	pronounced feeling of warmth, immediately pungent, typical alcohol pungency	pleasant, extremely pungent and warm flavour impression, which is reminiscent of ethanol and is relatively long lasting	
